This note sets out measurements from US20230265116A1, “DEGRADATION OF (EGFR) BY CONJUGATION OF EGFR INHIBITORS WITH E3 LIGASE LIGAND AND METHODS OF USE” (BEIGENE, LTD., priority 2020, published 2023).

Holding throughout (assay type): cell-based
One assay has as its target T1, EGFR (HCC827 cells) (Homo sapiens, UniProt P00533, DEL746-750).
T1 construct: endogenous in cells; host or cells: HCC827
The assay can be described thus: EGFR degradation HTRF assay, HCC827 cells. As to conditions: HCC827, 16h treatment; for Dmax: maximum percentage of degradation. Here is the method:
BaF3 WT(wild type), BaF3-LTC(L858R/T790M/C797S) and BaF3-DTC(Del19/T790M/C797S) cells are treated with compounds diluted in 0.2% DMSO cell culture medium and incubate for 16h, 37° C., 5% CO2, H1975-#36, H1975-#28, H1975-#23 and HCC827 cells are treated with compounds diluted in 0.2% DMSO cell culture medium on day 2, incubate for 16h, 37° C., 5% CO2.the final concentriation of compounds in all assay is start with 10 uM, 5-fold dilution, total 8 doses were included.
After 16h treatment, add HTRF lysis buffer to each well; seal the plate and incubate 1 hour at room temperature on a plate shaker; Once the cells are lysed, 16 μL of cell lysate are transferred to a PE 384-well HTRF detection plate; 4 μL of pre-mixed HTRF antibodies are added to each well; Cover the plate with a plate sealer, spin 1000 rpm for 1 min, Incubate overnight at room temperature; Read on BMG PheraStar with HTRF protocol (337 nm-665 nm-620 nm).
The inhibition (degradation) percentage of the compound was calculated by the following equation: Inhibition percentage of Compound=100-100×(Signal-low control)/(High control-low control), wherein signal=each test compound group
High control=Cell group with added DMSO and without compound, indicating microplate readings without EGFR degradation;
Dmax is the maximum percentage of inhibition (degradation).
The IC50 (DC50) value of a compound can be obtained by fitting the following equation
Y=Bottom+(TOP−Bottom)/(1+((IC50/X)^hillslope))
Wherein, X and Y are known values, and IC50, Hillslope, Top and Bottom are the parameters obtained by fitting with software. Y is the inhibition percentage (calculated from the equation), X is the concentration of the compound; IC50 is the concentration of the compound when the 50% inhibition is reached. The smaller the IC50 value is, the stronger the inhibitory ability of the compound is. Vice versa, the higher the IC50 value is, the weaker the inhibitory ability of the compound is; Hillslope represents the slope of the fitted curve, generally around 1*; Bottom represents the minimum value of the curve obtained by data fitting, which is generally 0%±20%; Top represents the maximum value of the curve obtained by data fitting, which is generally 100%±20%. The experimental data were fitted by calculating and analyzing with Dotmatics data analysis software.

Assay [1] deals with T2, EGFR L858R/T790M/C797S (BaF3-LTC cells) (Homo sapiens, UniProt P00533, C797S/L858R/T790M).
T2 construct: expressed in transfected cells; host or cells: BaF3
Briefly: EGFR degradation HTRF assay, BaF3-LTC cells. As to conditions: BaF3-LTC, 16h treatment; for Dmax: maximum percentage of degradation, read-out: LTC Dmax (%); for DC50: read-out: LTC DC50. In a few lines:
(§1)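 EGFR remaining after a 16 h, 37 °C exposure (8 doses, 5-fold steps from 10 uM final, 0.2% DMSO) was quantified by HTRF antibodies in cell lysate. Percent inhibition relative to DMSO control was fitted by four-parameter logistic to give DC50; Dmax denotes maximal degradation.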

In assay [2] the test system is EGFR Del19/T790M/C797S (BaF3-DTC cells). The assay can be described thus: EGFR degradation HTRF assay, BaF3-DTC cells. As to conditions: 16h treatment; for DTC Dmax (%): maximum percentage of degradation; for DC50: read-out: DTC DC50. In a few lines: as §1

SMILES strings stand for the structures.

T1 sequence (P00533 with tags, fused parts or gaps DEL746-750): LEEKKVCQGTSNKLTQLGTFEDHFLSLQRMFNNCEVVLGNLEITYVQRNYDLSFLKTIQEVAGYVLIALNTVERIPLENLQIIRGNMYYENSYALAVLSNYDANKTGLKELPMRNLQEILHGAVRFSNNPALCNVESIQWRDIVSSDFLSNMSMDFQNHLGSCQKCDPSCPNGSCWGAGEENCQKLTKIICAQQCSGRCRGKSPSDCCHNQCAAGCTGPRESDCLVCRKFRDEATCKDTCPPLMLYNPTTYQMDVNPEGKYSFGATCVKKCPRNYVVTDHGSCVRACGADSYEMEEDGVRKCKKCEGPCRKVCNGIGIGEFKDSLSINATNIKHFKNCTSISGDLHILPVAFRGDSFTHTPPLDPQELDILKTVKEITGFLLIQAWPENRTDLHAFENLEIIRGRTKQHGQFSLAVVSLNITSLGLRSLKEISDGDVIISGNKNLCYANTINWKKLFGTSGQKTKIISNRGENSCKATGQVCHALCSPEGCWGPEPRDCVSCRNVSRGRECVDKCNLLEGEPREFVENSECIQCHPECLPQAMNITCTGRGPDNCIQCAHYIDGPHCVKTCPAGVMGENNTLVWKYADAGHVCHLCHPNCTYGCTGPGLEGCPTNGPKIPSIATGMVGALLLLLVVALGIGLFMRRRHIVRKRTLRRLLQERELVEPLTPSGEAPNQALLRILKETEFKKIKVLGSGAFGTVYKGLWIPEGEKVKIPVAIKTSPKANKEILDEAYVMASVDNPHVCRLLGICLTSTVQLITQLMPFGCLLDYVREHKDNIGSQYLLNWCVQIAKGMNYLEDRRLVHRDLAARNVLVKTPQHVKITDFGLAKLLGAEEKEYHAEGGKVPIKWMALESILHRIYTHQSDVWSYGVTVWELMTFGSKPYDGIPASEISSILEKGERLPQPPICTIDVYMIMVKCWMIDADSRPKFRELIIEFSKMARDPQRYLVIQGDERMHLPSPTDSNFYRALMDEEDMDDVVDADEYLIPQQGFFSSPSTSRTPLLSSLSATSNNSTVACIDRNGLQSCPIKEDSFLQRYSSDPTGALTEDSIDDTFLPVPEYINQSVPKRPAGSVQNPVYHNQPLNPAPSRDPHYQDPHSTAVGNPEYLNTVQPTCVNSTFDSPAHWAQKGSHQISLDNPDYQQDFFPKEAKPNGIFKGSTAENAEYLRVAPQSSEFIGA
T2 sequence (P00533 25-1210 T790M/C797S/L858R): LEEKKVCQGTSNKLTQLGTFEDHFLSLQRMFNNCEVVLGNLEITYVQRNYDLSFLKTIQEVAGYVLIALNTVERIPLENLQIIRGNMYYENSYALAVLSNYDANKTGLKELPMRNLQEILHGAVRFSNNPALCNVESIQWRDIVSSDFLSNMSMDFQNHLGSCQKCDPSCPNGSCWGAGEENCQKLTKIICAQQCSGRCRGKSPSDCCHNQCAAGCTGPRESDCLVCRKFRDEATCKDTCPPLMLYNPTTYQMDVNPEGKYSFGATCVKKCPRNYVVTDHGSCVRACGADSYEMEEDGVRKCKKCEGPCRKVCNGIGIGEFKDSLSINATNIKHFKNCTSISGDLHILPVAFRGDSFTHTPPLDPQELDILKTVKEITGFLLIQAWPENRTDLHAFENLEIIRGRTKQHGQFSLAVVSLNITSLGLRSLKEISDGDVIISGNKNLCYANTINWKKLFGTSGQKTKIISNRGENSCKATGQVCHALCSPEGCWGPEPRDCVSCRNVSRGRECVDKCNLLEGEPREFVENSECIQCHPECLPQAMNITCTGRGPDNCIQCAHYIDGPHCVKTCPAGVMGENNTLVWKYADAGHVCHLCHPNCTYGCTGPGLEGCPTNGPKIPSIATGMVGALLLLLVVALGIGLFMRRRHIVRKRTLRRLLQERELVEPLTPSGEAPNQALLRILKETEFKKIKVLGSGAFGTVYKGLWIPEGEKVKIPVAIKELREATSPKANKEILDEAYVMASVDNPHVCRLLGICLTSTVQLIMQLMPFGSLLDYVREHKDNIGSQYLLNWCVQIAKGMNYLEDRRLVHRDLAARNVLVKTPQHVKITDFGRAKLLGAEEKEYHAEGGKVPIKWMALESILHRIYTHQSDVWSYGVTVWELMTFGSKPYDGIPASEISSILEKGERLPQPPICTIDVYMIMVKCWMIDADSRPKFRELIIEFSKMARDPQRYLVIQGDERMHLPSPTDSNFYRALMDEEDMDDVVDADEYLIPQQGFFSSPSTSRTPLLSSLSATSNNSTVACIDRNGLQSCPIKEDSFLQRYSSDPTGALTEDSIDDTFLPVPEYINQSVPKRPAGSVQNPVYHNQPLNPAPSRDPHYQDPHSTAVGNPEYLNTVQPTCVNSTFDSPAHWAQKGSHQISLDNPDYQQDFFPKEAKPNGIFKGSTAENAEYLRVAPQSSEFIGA

Consider `COc1cc(N2CCC(NCCCCCCCc3ccc(C4CCC(=O)NC4=O)cc3)CC2)ccc1Nc1ncc(Cl)c(Nc2ccccc2N(C)S(C)(=O)=O)n1` (stereo not shown) [Example 132, N-(2-((5-chloro-2-((4-(4-((7-(4-(2,6-dioxopiperidin-3-yl)phenyl)heptyl)amino)piperidin-1-yl)-2-methoxyphenyl)amino)pyrimidin-4-yl)amino)phenyl)-N-methylmethanesulfonamide], for which, at EGFR (HCC827 cells), half-maximal degradation (DC50) was put at 34 nM and the greatest degradation seen (Dmax) – broadly, the greatest extent of degradation seen – worked out at 80%.

With `COc1cc(N2CCC(N3CCN(CCC4CCN(c5ccc(C6CCC(=O)NC6=O)cc5)CC4)CC3)CC2)ccc1Nc1ncc(Cl)c(Nc2ccccc2N(C)S(C)(=O)=O)n1` (stereo not shown) [Example 121, N-(2-((5-chloro-2-((4-(4-(4-(2-(1-(4-(2,6-dioxopiperidin-3-yl)phenyl)piperidin-4-yl)ethyl)piperazin-1-yl)piperidin-1-yl)-2-methoxyphenyl)amino)pyrimidin-4-yl)amino)phenyl)-N-methylmethanesulfonamide], on EGFR (HCC827 cells), it took 19 nM to reach half-maximal degradation (DC50) and the greatest degradation seen (Dmax) worked out at 80.8%.

On to `COc1cc(N2CCC(N(C)CCC3CCN(c4ccc(C5CCC(=O)NC5=O)cc4)CC3)CC2)c(C)cc1Nc1ncc(Br)c(Nc2ccc3nccnc3c2P(C)(C)=O)n1` (stereo not shown) [Example 78, 3-(4-(4-(2-((1-(4-((5-bromo-4-((5-(dimethylphosphoryl)quinoxalin-6-yl)amino)pyrimidin-2-yl)amino)-5-methoxy-2-methylphenyl)piperidin-4-yl)(methyl)amino)ethyl)piperidin-1-yl)phenyl)piperidine-2,6-dione], for which, on EGFR (HCC827 cells), half-maximal degradation (DC50) was put at 15.2 nM and the Dmax was 70.1%.

Take `COc1cc(N2CCC(N3CCN(CC4CCC(c5ccc(N6CCC(=O)NC6=O)cc5)CC4)CC3)CC2)ccc1Nc1ncc(Cl)c(Nc2ccccc2P(C)(C)=O)n1` (stereo not shown) [Example 110, 1-(4-(4-((4-(1-(4-((5-chloro-4-((2-(dimethylphosphoryl)phenyl)amino)pyrimidin-2-yl)amino)-3-methoxyphenyl)piperidin-4-yl)piperazin-1-yl)methyl)cyclohexyl)phenyl)dihydropyrimidine-2,4(1H,3H)-dione]: at EGFR (HCC827 cells), it took 49.6 nM to reach half-maximal degradation (DC50) and the Dmax stood at 81.2%.

In the case of `COc1cc(N2CCC(N(C)CCC3CCN(c4ccc(N5CCC(=O)NC5=O)cc4)CC3)CC2)c(C)cc1Nc1ncc(Br)c(Nc2ccc3nccnc3c2P(C)(C)=O)n1` [Example 80, 1-(4-(4-(2-((1-(4-((5-bromo-4-((5-(dimethylphosphoryl)quinoxalin-6-yl)amino)pyrimidin-2-yl)amino)-5-methoxy-2-methylphenyl)piperidin-4-yl)(methyl)amino)ethyl)piperidin-1-yl)phenyl)dihydropyrimidine-2,4(1H,3H)-dione], on EGFR (HCC827 cells), the DC50 – broadly, the concentration giving 50% degradation – amounted to 35.9 nM and the greatest degradation seen (Dmax) stood at 74.4%.

As to `CCc1cc(Nc2ncc(Br)c(Nc3ccc4nccnc4c3P(C)(C)=O)n2)c(OC)cc1N1CCC(N2CCN(CCNc3cccc4c3CN(C3CCC(=O)NC3=O)C4=O)CC2)CC1` (stereo not shown) [Example 248, 3-(4-((2-(4-(1-(4-((5-bromo-4-((5-(dimethylphosphoryl)quinoxalin-6-yl)amino)pyrimidin-2-yl)amino)-2-ethyl-5-methoxyphenyl)piperidin-4-yl)piperazin-1-yl)ethyl)amino)-1-oxoisoindolin-2-yl)piperidine-2,6-dione], in assay [1], the Dmax worked out at 89.4% and the DC50 was found to be 9.39 nM. Besides, in assay [2], the “DTC Dmax (%)” value was 89.62% and the 50% degradation concentration (DC50) is 4.41 nM.

On to `CCc1cc(Nc2ncc(Br)c(Nc3ccc4nc(C5CC5)ccc4c3P(C)(C)=O)n2)c(OC)cc1N1CCC(N2CCN(CC3CN(c4ccc5c(c4)CN(C4CCC(=O)NC4=O)C5=O)C3)CC2)CC1` (stereo not shown) [Example 426, 3-(5-(3-((4-(1-(4-((5-bromo-4-((2-cyclopropyl-5-(dimethylphosphoryl)quinolin-6-yl)amino)pyrimidin-2-yl)amino)-2-ethyl-5-methoxyphenyl)piperidin-4-yl)piperazin-1-yl)methyl)azetidin-1-yl)-1-oxoisoindolin-2-yl)piperidine-2,6-dione], for which, in assay [1], the Dmax is 89% and the DC50 was 6.67 nM. In assay [2], the “DTC Dmax (%)” value worked out at 91.88% and the half-maximal degradation concentration (DC50) was found to be 4.34 nM.

`CCc1cc(Nc2ncc(Br)c(Nc3ccc4nc(C)ccc4c3P(C)(C)=O)n2)c(OC)cc1N1CCC(N2CCN([C@H]3C[C@@H](c4cc(F)c(C5CCC(=O)NC5=O)c(F)c4)C3)CC2)CC1` (stereo partly shown) [Example 717, 3-(4-((1s,3s)-3-(4-(1-(4-((5-bromo-4-((5-(dimethylphosphoryl)-2-methylquinolin-6-yl)amino)pyrimidin-2-yl)amino)-2-ethyl-5-methoxyphenyl)piperidin-4-yl)piperazin-1-yl)cyclobutyl)-2,6-difluorophenyl)piperidine-2,6-dione]: in assay [1], the greatest degradation seen (Dmax) amounted to 91.4% and the DC50 was 17.1 nM. For the same compound, in assay [2], the “DTC Dmax (%)” value was 94.13% and the half-maximal degradation concentration (DC50) was found to be 5.98 nM.

Turning to `CCc1cc(Nc2ncc(Br)c(Nc3ccc4nc(C)ccc4c3P(C)(C)=O)n2)c(OC)cc1N1CCC(N2CCN(CCc3ccc4c(cnn4C4CCC(=O)NC4=O)c3)CC2)CC1` (stereo not shown) [Example 211, 3-(5-(2-(4-(1-(4-((5-bromo-4-((5-(dimethylphosphoryl)-2-methylquinolin-6-yl)amino)pyrimidin-2-yl)amino)-2-ethyl-5-methoxyphenyl)piperidin-4-yl)piperazin-1-yl)ethyl)-1H-indazol-1-yl)piperidine-2,6-dione], in assay [1], the greatest degradation seen (Dmax) turned out to be 91.4% and the DC50 amounted to 4.75 nM. In assay [2], the “DTC Dmax (%)” value came to 94.88% and the DC50 came to 2.72 nM.

`CCc1cc(Nc2ncc(Br)c(Nc3ccc4nc(C)ccc4c3P(C)(C)=O)n2)c(OC)cc1N1CCC(N2CCN(CCN(C)c3cc(F)c(C4CCC(=O)NC4=O)c(F)c3)CC2)CC1` (stereo not shown) [Example 433, 3-(4-((2-(4-(1-(4-((5-bromo-4-((5-(dimethylphosphoryl)-2-methylquinolin-6-yl)amino)pyrimidin-2-yl)amino)-2-ethyl-5-methoxyphenyl)piperidin-4-yl)piperazin-1-yl)ethyl)(methyl)amino)-2,6-difluorophenyl)piperidine-2,6-dione]: in assay [1], the Dmax came out at 90.8% and the DC50 was 9.35 nM. In addition, in assay [2], the “DTC Dmax (%)” value was 93.56% and the DC50 was 4.29 nM.

As to `CCc1cc(Nc2ncc(Br)c(Nc3ccc4nccnc4c3P(C)(C)=O)n2)c(OC)cc1N1CCC(N2CCN(C[C@H]3C[C@H](c4ccc(NC5CCC(=O)NC5=O)cc4)C3)CC2)CC1` (stereo partly shown) [Example 284, 3-((4-((1r,3r)-3-((4-(1-(4-((5-bromo-4-((5-(dimethylphosphoryl)quinoxalin-6-yl)amino)pyrimidin-2-yl)amino)-2-ethyl-5-methoxyphenyl)piperidin-4-yl)piperazin-1-yl)methyl)cyclobutyl)phenyl)amino)piperidine-2,6-dione], in assay [1], the Dmax worked out at 75.5% and the DC50 came to 81.4 nM. In assay [2], the “DTC Dmax (%)” value was 77.49% and the DC50 came out at 61.2 nM.
